Assay results: PMC11845477, “Exploring the principles behind antibiotics with limited resistance” (Nature Communications, 2025)

Key:
[1] = system: E. coli ATCC 25922 (SEN) and E. coli NCTC13846 (MDR); assay: Adaptive laboratory evolution (ALE), relative MIC of evolved lines; format: cell-based, Escherichia coli
From the text: Using the same set of bacterial strains, we initiated adaptive laboratory evolution with the aim to maximize the level of antibiotic resistance in the populations achieved during a longer, but fixed time period.
An established protocol for adaptive laboratory evolution[46],[73] was followed to propagate populations with the highest resistance levels. Starting with an antibiotic concentration that caused approximately 50% growth inhibition, ten parallel populations for each antibiotic-ancestor strain combination were grown for 72 hours at 37 °C with continuous shaking (300 RPM). MHB broth medium was used unless stated otherwise. After each incubation, 20 µl of each culture was transferred to four new wells containing fresh medium with increasing antibiotic concentrations (0.5×, 1×, 1.5×, and 2.5× the previous concentration) in a chessboard layout to monitor potential cross-contamination. Growth was monitored by measuring OD600 using a Biotek Synergy 2 microplate reader, and only populations grown in the highest drug concentration with an OD600 > 0.2 were transferred further.
A robotic liquid handling system was used to automatically prepare a 11 to 16-step serial dilution in 384-well microtiter plates (Greiner). A final concentration of 5 × 10^5 bacterial cells per mL were inoculated into each well containing 60 µL MHB medium. Bacterial cultures were incubated at 37 °C with continuous shaking (Infors shaker, 900 rpm with 3 mm throw) for 18 hours (2 replicates from each). Cell growth was monitored by measuring the optical density (OD600 values, using Biotek Synergy microplate reader). MIC was defined as the antibiotic concentration of complete growth inhibition (i.e., OD600 < 0.05). Relative MIC was calculated as follows:1 relativeMIC=MICevolved/MICancestor […]
Supplementary Figure 4. Resistance levels following adaptive laboratory evolution across bacterial strains. The level of resistance was measured as the fold change in relative MIC between evolved and ancestral strains after ~60 days of adaptive laboratory evolution. Data are grouped by bacterial strain (A. baumannii (AB), E. coli (EC), K. pneumoniae (KP), and P. aeruginosa (PA)) and categorized as either multidrug-resistant (MDR) or sensitive (SEN). Each data point represents a laboratory evolved line, and boxplots show the median, first and third quartiles, with whiskers indicating the 5th and 95th percentiles.
Statistical analysis was performed using two-sided Dunn’s post-hoc test with Benjamini-Hochberg correction for multiple comparisons (****/ ***/ **/ * indicates p < 0.0001/ 0.001/ 0.01/ 0.05). For detailed information on antibiotic and bacterial species, see Supplementary Table 1. For mode of action groups, refer to Table 1. Source data are provided as a Source Data file.
(1 picture or pasted object on this page, not shown here)

[2] = system: E. coli ATCC 25922 (SEN) and E. coli NCTC13846 (MDR); assay: microbe, parasite or virus in culture; format: cell-based, Escherichia coli; conditions: for MIC: Escherichia coli, across three biological replicates
Method: (§1) This study focused on multiple bacterial strains, as follows. For the FoR and ALE experiments, 2 strains per species were chosen: E. coli ATCC 25922, K. pneumoniae ATCC 10031, A. baumannii ATCC 17978, and P. aeruginosa ATCC BAA-3107 as sensitive (SEN) strains, and E. coli NCTC13846, K. pneumoniae ATCC 700603, A. baumannii ATCC BAA-1605 and P. aeruginosa LESB58 as multi-drug resistant (MDR) strains. Functional metagenomic screens were performed with E. coli ATCC 25922 and K. pneumoniae ATCC 10031 strains. To determine the dose-kill properties of the different antibiotics, an E. coli strain (ATCC 25922) expressing a yellow fluorescent protein (pZS2R, YFP, CHL^R) and a red fluorescent protein (pZS2R, mCherry, CHL^R) was used.
(§2) Unless otherwise indicated, cation-adjusted Mueller-Hinton Broth 2 (MHB, Millipore) medium was used throughout the study, except for SCH79797 (SCH).
(§3) A robotic liquid handling system was used to automatically prepare a 11 to 16-step serial dilution in 384-well microtiter plates (Greiner). A final concentration of 5 × 10^5 bacterial cells per mL were inoculated into each well containing 60 µL MHB medium. Bacterial cultures were incubated at 37 °C with continuous shaking (Infors shaker, 900 rpm with 3 mm throw) for 18 hours (2 replicates from each). Cell growth was monitored by measuring the optical density (OD600 values, using Biotek Synergy microplate reader). MIC was defined as the antibiotic concentration of complete growth inhibition (i.e., OD600 < 0.05). Relative MIC was calculated as follows:1 relativeMIC=MICevolved/MICancestor

[3] = system: A. baumannii ATCC 17978 (SEN) and A. baumannii ATCC BAA-1605 (MDR); assay: microbe, parasite or virus in culture; format: cell-based, Acinetobacter baumannii; conditions: for MIC of ancestor: ancestor strain; for MIC: Acinetobacter baumannii, across three biological replicates
Method: as §1, §2, §3

[4] = Acinetobacter baumannii ATCC 17978 (AB-SEN)

Compound: CN(C)[C@@H]1C(O)=C(C(N)=O)C(=O)[C@@]2(O)C(O)=C3C(=O)c4c(O)c(NC(=O)CN5CCCC5)cc(F)c4C[C@H]3C[C@@H]12 [Eravacycline]
- Relative MIC (log10) ([1]; EC-MDR (Escherichia coli NCTC 13846), evolved line 1 adapted to the named antibiotic): 1.505
- Relative MIC (log10) ([1]; EC-MDR (Escherichia coli NCTC 13846), evolved line 3 adapted to the named antibiotic): 1.204
- Relative MIC (log10) ([1]; EC-MDR (Escherichia coli NCTC 13846), evolved line 4 adapted to the named antibiotic): 1.204
- Relative MIC (log10) ([1]; EC-MDR (Escherichia coli NCTC 13846), evolved line 7 adapted to the named antibiotic): 1.204
- Relative MIC (log10) ([1]; EC-MDR (Escherichia coli NCTC 13846), evolved line 9 adapted to the named antibiotic): 1.505
- Relative MIC ([1]; EC-MDR (NCTC 13846), evolved line 1, MIC of evolved line / MIC of ancestor): 32
- Relative MIC ([1]; EC-MDR (NCTC 13846), evolved line 2, MIC of evolved line / MIC of ancestor): 16
- Relative MIC ([1]; EC-MDR (NCTC 13846), evolved line 3, MIC of evolved line / MIC of ancestor): 16
- Relative MIC ([1]; EC-MDR (NCTC 13846), evolved line 4, MIC of evolved line / MIC of ancestor): 16
- Relative MIC ([1]; EC-MDR (NCTC 13846), evolved line 5, MIC of evolved line / MIC of ancestor): 8
- Relative MIC ([1]; EC-MDR (NCTC 13846), evolved line 7, MIC of evolved line / MIC of ancestor): 16
- Relative MIC ([1]; EC-MDR (NCTC 13846), evolved line 8, MIC of evolved line / MIC of ancestor): 16
- Relative MIC ([1]; EC-MDR (NCTC 13846), evolved line 9, MIC of evolved line / MIC of ancestor): 32
- Relative MIC ([1]; EC-MDR (NCTC 13846), evolved line 10, MIC of evolved line / MIC of ancestor): 8
- Relative MIC ([1]; EC-SEN (ATCC 25922), evolved line 1, MIC of evolved line / MIC of ancestor): 64
- Relative MIC ([1]; EC-SEN (ATCC 25922), evolved line 2, MIC of evolved line / MIC of ancestor): 16
- Relative MIC (log10) ([1]; EC-SEN (Escherichia coli ATCC 25922), evolved line 1 adapted to the named antibiotic): 1.806
- Relative MIC (log10) ([1]; EC-SEN (Escherichia coli ATCC 25922), evolved line 4 adapted to the named antibiotic): 1.204
- Relative MIC (log10) ([1]; EC-SEN (Escherichia coli ATCC 25922), evolved line 7 adapted to the named antibiotic): 1.204
- Relative MIC (log10) ([1]; EC-SEN (Escherichia coli ATCC 25922), evolved line 8 adapted to the named antibiotic): 1.204
- Relative MIC ([1]; EC-SEN, Escherichia coli ATCC 25922, evolved line 3 versus ancestor): 8
- Relative MIC ([1]; EC-SEN, Escherichia coli ATCC 25922, evolved line 4 versus ancestor): 16
- Relative MIC ([1]; EC-SEN, Escherichia coli ATCC 25922, evolved line 6 versus ancestor): 8
- Relative MIC ([1]; EC-SEN, Escherichia coli ATCC 25922, evolved line 7 versus ancestor): 16
- Relative MIC ([1]; EC-SEN, Escherichia coli ATCC 25922, evolved line 8 versus ancestor): 16
- Relative MIC ([1]; EC-SEN, Escherichia coli ATCC 25922, evolved line 9 versus ancestor): 16
- Relative MIC ([1]; EC-SEN, Escherichia coli ATCC 25922, evolved line 10 versus ancestor): 32
- Relative MIC ([1]; Escherichia coli ATCC 25922 (EC-SEN), evolved line 1): 64
- Relative MIC ([1]; Escherichia coli ATCC 25922 (EC-SEN), evolved line 2): 16
- Relative MIC ([1]; Escherichia coli ATCC 25922 (EC-SEN), evolved line 3): 8
- Relative MIC ([1]; Escherichia coli ATCC 25922 (EC-SEN), evolved line 4): 16
- Relative MIC ([1]; Escherichia coli ATCC 25922 (EC-SEN), evolved line 6): 8
- Relative MIC ([1]; Escherichia coli ATCC 25922 (EC-SEN), evolved line 7): 16
- Relative MIC ([1]; Escherichia coli ATCC 25922 (EC-SEN), evolved line 8): 16
- Relative MIC ([1]; Escherichia coli ATCC 25922 (EC-SEN), evolved line 9): 16
- Relative MIC ([1]; Escherichia coli ATCC 25922 (EC-SEN), evolved line 10): 32
- Relative MIC ([1]; Escherichia coli NCTC 13846 (EC-MDR), evolved line 1): 32
- Relative MIC ([1]; Escherichia coli NCTC 13846 (EC-MDR), evolved line 2): 16
- Relative MIC ([1]; Escherichia coli NCTC 13846 (EC-MDR), evolved line 3): 16
- Relative MIC ([1]; Escherichia coli NCTC 13846 (EC-MDR), evolved line 4): 16
- Relative MIC ([1]; Escherichia coli NCTC 13846 (EC-MDR), evolved line 5): 8
- Relative MIC ([1]; Escherichia coli NCTC 13846 (EC-MDR), evolved line 7): 16
- Relative MIC ([1]; Escherichia coli NCTC 13846 (EC-MDR), evolved line 8): 16
- Relative MIC ([1]; Escherichia coli NCTC 13846 (EC-MDR), evolved line 9): 32
- Relative MIC ([1]; Escherichia coli NCTC 13846 (EC-MDR), evolved line 10): 8
- MIC of ancestor ([2]; E. coli NCTC 13846 (EC-MDR), ancestor strain, sheet fig 2a): 1 µg/mL
- MIC of ancestor ([2]; EC-SEN, Escherichia coli ATCC 25922, ancestor strain): 0.125 µg/mL
- MIC of ancestor ([2]; Escherichia coli ATCC 25922 (EC-SEN), ancestor strain, sheet fig 2a): 0.125 µg/mL
- MIC of ancestor ([2]; Escherichia coli NCTC 13846 (EC-MDR), ancestor strain): 1 µg/mL
- MIC ([2]; Escherichia coli ATCC 25922 (EC-SEN)): 0.125 µg/mL
- MIC ([2]; Escherichia coli NCTC 13846 (EC-MDR)): 1 µg/mL
- MIC of ancestor [3, 4]: 0.0625 µg/mL
- MIC of ancestor ([3]; Acinetobacter baumannii ATCC 17978 (AB-SEN), sheet fig 2a): 0.0625 µg/mL
- MIC of ancestor ([3]; Acinetobacter baumannii ATCC BAA 1605 (AB-MDR)): 2 µg/mL
- MIC of ancestor ([3]; Acinetobacter baumannii ATCC BAA 1605 (AB-MDR), sheet fig 2a): 2 µg/mL
- MIC [3, 4]: 0.0625 µg/mL
- MIC ([3]; Acinetobacter baumannii ATCC BAA-1605 (AB-MDR)): 2 µg/mL
